We go through 14 compounds from patent US8357717B2, “Spiro group-containing amide compounds having bradykinin 1 receptor (B1R) activity” (Gruenenthal GmbH, priority 2009, dated 2013).

Assay [1] deals with T1, human B1R receptor (hB1R) (Homo sapiens, UniProt P46663).
T1 construct: expressed in transfected cells; host or cells: CHO K1 cells, stably transfected
T1 sequence (P46663 1-353): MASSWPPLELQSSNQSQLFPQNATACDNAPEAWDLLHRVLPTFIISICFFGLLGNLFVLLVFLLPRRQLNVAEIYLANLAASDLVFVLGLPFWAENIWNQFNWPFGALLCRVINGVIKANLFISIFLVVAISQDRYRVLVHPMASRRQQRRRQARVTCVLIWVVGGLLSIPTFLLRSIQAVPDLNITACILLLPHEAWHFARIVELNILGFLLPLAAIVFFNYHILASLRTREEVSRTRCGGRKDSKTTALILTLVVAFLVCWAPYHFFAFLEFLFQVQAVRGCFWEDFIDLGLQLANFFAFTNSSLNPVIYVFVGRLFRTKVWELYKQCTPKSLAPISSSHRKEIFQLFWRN
Kind of assay: FLIPR Ca2+ functional study on bradykinin receptor 1, hB1R cells (CHO K1). It is filed as cell-based. The note with it: CHO-K1, 10 μM test substance; CHO K1 cells with human B1R; agonist Lys-Des-Arg9-bradykinin at EC80; read-out: B1R antagonism, human [10 μM] % inhibition. As for the experimental part: (§1) The agonistic or antagonistic activity of substances can be quantified on the bradykinin receptor 1 (B1R) of the species human and rat using ectopically expressing cell lines (CHO K1 cells) and with the aid of a Ca^2+-sensitive dye (Fluo-4) using a fluorescent imaging plate reader (FLIPR). The indication in % activation is based on the Ca^2+ signal after addition of Lys-Des-Arg^9-bradykinin (0.5 nM) or Des-Arg^9-bradykinin (100 nM). Antagonists lead to suppression of the Ca^2+ influx after the addition of the agonist. % Inhibition compared with the maximum achievable inhibition is indicated.
(§2) The agonistic or antagonistic activity of substances can be determined on the bradykinin receptor 1 (B1R) of the species human and rat using the following assay. According to this assay, the Ca^2+ influx through the channel is quantified with the aid of a Ca^2+-sensitive dye (Fluo-4 type, Molecular Probes Europe BV, Leiden, Netherlands) using a Fluorescent Imaging Plate Reader (FLIPR, Molecular Devices, Sunnyvale, USA).
(§3) Chinese hamster ovary cells (CHO K1 cells) which have been stably transfected with the human B1R gene (hB1R cells) or with the B1R gene of the rat (rB1R cells) are used. For functional studies, the cells are plated out on black 96-well plates having a clear base (BD Biosciences, Heidelberg, Germany or Greiner, Frickenhausen, Germany) in a density of 20,000-35,000 cells/well. The cells are left overnight at 37° C. and with 5% CO2 in culture medium (hB1R cells: Nutrient Mixture Ham's F12, Gibco Invitrogen GmbH, Karlsruhe, Germany or DMEM, Sigma-Aldrich, Taufkirchen, Germany; rB1R cells: D-MEM/F12, Gibco Invitrogen GmbH, Karlsruhe, Germany), with 10 vol. % FBS (fetal bovine serum, Gibco Invitrogen GmbH, Karlsruhe, Germany or PAN Biotech GmbH, Aidenbach, Germany). On the following day, the cells are loaded for 60 minutes at 37° C. with 2.13 μM Fluo-4 (Molecular Probes Europe BV, Leiden, Netherlands) in HBSS buffer (Hank's buffered saline solution, Gibco Invitrogen GmbH, Karlsruhe, Germany) […] (Sigma-Aldrich, Taufkirchen, Germany) and 10 mM HEPES (Sigma-Aldrich, Taufkirchen, Germany). The plates are then washed twice with HBSS buffer, and HBSS buffer additionally containing 0.1% BSA (bovine serum albumin; Sigma-Aldrich, Taufkirchen, Germany), 5.6 mM glucose and 0.05% gelatin (Merck KGaA, Darmstadt, Germany) is added to the plates. After incubation for a further 20 minutes at room temperature, the plates are inserted into the FLIPR for Ca^2+ measurement. Alternatively, washing is carried out with buffer A (15 mM HEPES, 80 mM NaCl, 5 mM KCl, 1.2 mM CaCl2, 0.7 mM MgSO4, 2 g/l glucose, 2.5 mM probenecid) followed by loading with buffer A with added 2.5 μM Fluo-4 and 0.025% Pluronic F127 (Sigma-Aldrich, Taufkirchen, Germany). The cells are then washed twice with buffer A and incubated for 30 minutes at room temperature with buffer A additionally containing 0.05% BSA and 0.05% gelatin and are then inserted into the FLIPR for Ca^2+ measurement. The Ca^2+-dependent fluorescence is measured before and after the addition of substances (λex=488 nm, λem=540 nm). Quantification is carried out by measuring the highest fluorescence intensity (FC, fluorescence counts) over time.
(§4) The FLIPR protocol consists of two substance additions. Test substances (10 μM) are first pipetted onto the cells and the Ca^2+ influx is compared with the control (hB1R: Lys-Des-Arg^9-bradykinin >=50 nM; rB1R: Des-Arg^9-bradykinin 10 μM). This gives the activation in %, based on the Ca^2+ signal after addition of Lys-Des-Arg^9-bradykinin (>=50 nM) or Des-Arg^9-bradykinin (10 μM). After 10-20 minutes' incubation, Lys-Des-Arg^9-bradykinin (hB1R) or Des-Arg^9-bradykinin (rB1R) is applied in the concentration of the EC80, and the influx of Ca^2+ is likewise determined. Antagonists lead to suppression of the Ca^2+ influx. The % inhibition compared with the maximum achievable inhibition is calculated. […]

The target in assay [2] is T2, B1R receptor of the rat (rB1R) (Rattus norvegicus, UniProt P97583).
T2 construct: expressed in transfected cells; host or cells: CHO K1 cells, stably transfected
T2 sequence (P97583 1-337): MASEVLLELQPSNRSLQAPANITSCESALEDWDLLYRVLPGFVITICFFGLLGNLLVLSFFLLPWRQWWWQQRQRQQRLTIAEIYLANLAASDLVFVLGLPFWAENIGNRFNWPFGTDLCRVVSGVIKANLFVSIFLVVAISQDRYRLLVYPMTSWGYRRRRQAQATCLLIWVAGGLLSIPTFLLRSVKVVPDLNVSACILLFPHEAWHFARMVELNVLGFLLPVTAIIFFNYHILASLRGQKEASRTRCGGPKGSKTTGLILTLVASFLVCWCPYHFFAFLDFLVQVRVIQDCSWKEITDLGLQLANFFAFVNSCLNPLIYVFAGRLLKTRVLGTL
The assay can be described thus: FLIPR Ca2+ functional study on bradykinin receptor 1, rB1R cells (CHO K1). It is filed as cell-based. Conditions: 10 μM test substance; CHO K1 cells with rat B1R; agonist Des-Arg9-bradykinin at EC80; read-out: B1R antagonism, rat [10 μM] % inhibition. As for the experimental part:
as §1, §2, §3, §4

With `O=C(c1cccc2c1CN(S(=O)(=O)c1cccc(Cl)c1Cl)CC2)N1CCC2(CC1)CCN(c1ccncc1)CC2` [Compound G-38, (2-(2,3-Dichlorophenylsulfonyl)-1,2,3,4-tetrahydroisoquinolin-8-yl)(9-(pyridin-4-yl)-3,9-diazaspiro[5.5]undecan-3-yl)methanone], the inhibition (usually the relative decrease from the control value, in per cent) at 10 µM in assay [1] was 97%; in assay [2], 91%.
For `O=C(/C=C/c1ccccc1Cl)N1CCc2ccc(C(=O)N3CCC4(CC3)CCN(c3ccncc3)CC4)cc2C1` [Compound G-41, 3-(2-Chlorophenyl)-1-(7-(9-(pyridin-4-yl)-3,9-diazaspiro[5.5]undecane-3-carbonyl)-3,4-dihydroisoquinolin-2(1H)-yl)prop-2-en-1-one] the same measures were 99% and 90%.
Take `COc1cc(C)c(S(=O)(=O)N2CCCc3ccc(C(=O)N4CCC5(CC4)CCN(c4ccncc4)CC5)cc32)c(C)c1` [Compound G-24, (1-(4-Methoxy-2,6-dimethylphenylsulfonyl)-1,2,3,4-tetrahydroquinolin-7-yl)(9-(pyridin-4-yl)-3,9-diazaspiro[5.5]undecan-3-yl)methanone]: the inhibition at 10 µM worked out at 99% in assay [1] and 100% in assay [2].
With `CC(C)(C)c1ccc(C(=O)N2CCc3ccc(C(=O)N4CCC5(CC4)CCN(c4ccncc4)CC5)cc3C2)s1` [Compound G-63, (5-tert-Butylthiophen-2-yl)(7-(9-(pyridin-4-yl)-3,9-diazaspiro[5.5]undecane-3-carbonyl)-3,4-dihydroisoquinolin-2(1H)-yl)methanone], the inhibition at 10 µM in assay [1] was determined as 83%; in assay [2], 80%.
Turning to `COc1cc(C)c(S(=O)(=O)N2CCCc3ccc(CC(=O)N4CCC5(CCN(c6ccncc6)C5)C4)cc32)c(C)c1` (stereo not shown) [Compound G-12, 2-(1-(4-Methoxy-2,6-dimethylphenylsulfonyl)-1,2,3,4-tetrahydroquinolin-7-yl)-1-(7-(pyridin-4-yl)-2,7-diazaspiro[4.4]nonan-2-yl)ethanone], the inhibition at 10 µM in assay [1] came out at 100%; in assay [2] it was 102%.
The like results for `COc1ccc2c(Cl)c(C(=O)N3CCc4ccc(C(=O)N5CCC6(CC5)CCN(c5ccncc5)CC6)cc4C3)sc2c1` [Compound G-61, (3-Chloro-6-methoxybenzo[b]thiophen-2-yl)(7-(9-(pyridin-4-yl)-3,9-diazaspiro[5.5]undecane-3-carbonyl)-3,4-dihydroisoquinolin-2(1H)-yl)methanone] were, in that order, 77% and 91%.
For `O=C(Cc1ccc2c(c1)N(S(=O)(=O)c1cccc3ccccc13)CCC2)N1CCC2(CCN(c3ccncc3)CC2)C1` [Compound G-52, 2-(1-(Naphthalin-1-ylsulfonyl)-1,2,3,4-tetrahydroquinolin-7-yl)-1-(8-(pyridin-4-yl)-2,8-diazaspiro[4.5]decan-2-yl)ethanone] the same measures were 98% and 106%.
For `O=C(c1cc2c(s1)CCN(C(=O)c1ccccc1Cl)C2)N1CCC2(CC1)CCN(c1ccncc1)CC2` [Compound G-15, (5-(2-Chlorobenzoyl)-4,5,6,7-tetrahydrothieno[3,2-c]pyridin-2-yl)(9-(pyridin-4-yl)-3,9-diazaspiro[5.5]undecan-3-yl)methanone], the inhibition at 10 µM in assay [1] came out at 66%; in assay [2], 81%.
Turning to `O=C(c1ccc2c(c1)CN(C(=O)c1ccc(Cl)s1)C2)N1CCC2(CC1)CCN(c1ccncc1)CC2` [Compound G-69, [2-(5-Chloro-thiophene-2-carbonyl)-2,3-dihydro-1H-isoindol-5-yl]-(9-pyridin-4-yl-3,9-diazaspiro[5.5]undecan-3-yl)-methanone], the results for the inhibition at 10 µM in assay [1] and in assay [2] were 99% and 70%, respectively.
Take `Cc1ccc(Cl)c(S(=O)(=O)N2CCCc3ccc(CC(=O)N4CCC5(CC4)CCN(c4ccncc4)CC5)cc32)c1Cl` [Compound G-66, 2-[1-[(2,6-Dichloro-3-methyl-phenyl)sulfonyl]-1,2,3,4-tetrahydro-quinolin-7-yl]-1-(9-pyridin-4-yl-3,9-diazaspiro[5.5]undecan-3-yl)-ethanone]: the inhibition at 10 µM in assay [1] was 98%; in assay [2], 100%.
In the case of `COc1cc(C)c(S(=O)(=O)N2CCCc3ccc(CC(=O)N4CCC5(CCN(c6ccncc6)CC5)C4)cc32)c(C)c1` [Compound G-11, 2-(1-(4-Methoxy-2,6-dimethylphenylsulfonyl)-1,2,3,4-tetrahydroquinolin-7-yl)-1-(8-(pyridin-4-yl)-2,8-diazaspiro[4.5]decan-2-yl)ethanone], the inhibition at 10 µM in assay [1] and in assay [2] was 99% throughout.
`O=C(Nc1ccc(Cl)c(Cl)c1)N1CCc2ccc(C(=O)N3CCC4(CC3)CCN(c3ccncc3)CC4)cc2C1` [Compound G-55, N-(3,4-dichlorophenyl)-7-(9-(pyridin-4-yl)-3,9-diazaspiro[5.5]undecane-3-carbonyl)-3,4-dihydroisoquinoline-2(1H)-carboxamide]: the inhibition at 10 µM in assay [1] amounted to 92%; in assay [2], 94%.
As to `O=C(c1ccc2c(c1)CN(S(=O)(=O)c1cccc3c(Cl)cccc13)CC2)N1CCC2(CC1)CCN(c1ccncc1)CC2` [Compound G-62, (2-(5-Chloronaphthalin-1-ylsulfonyl)-1,2,3,4-tetrahydroisoquinolin-7-yl)(9-(pyridin-4-yl)-3,9-diazaspiro[5.5]undecan-3-yl)methanone], the inhibition at 10 µM stood at 44% in assay [1] and 78% in assay [2].
The like results for `Cc1cc(S(=O)(=O)N2CCc3ccc(C(=O)N4CCC5(CC4)CCN(c4ccncc4)CC5)cc32)c(C)cc1Cl` [G_CC-013, (1-(4-Chloro-2,5-dimethylphenylsulfonyl)indolin-6-yl)(9-(pyridin-4-yl)-3,9-diazaspiro[5.5]undecan-3-yl)methanone] were, in that order, 87% and 99%.
